Results: publication PMC8162404, “Proteomimetic surface fragments distinguish targets by function” (Chemical Science, 2020)

Experiments:
CaM [1] = biological target: T1, CaM (Bos taurus, UniProt P62157); experiment: Pull-down assay with immobilized protein and LSM libraries; format: binding, bovine; conditions: H14 library; 1:2 stoichiometry assumed; read-out: Surface mapping KD (apparent)
T1 construct: made in house; host or cells: E. coli BL21 (DE3)
Procedure, shortened: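 CaM buffer was 20 mM HEPES pH 7.4, 150 mM NaCl, 5 mM CaCl2. LSM sublibrary members ([…]) incubated 30 min, RT, with equimolar His-tagged protein on Co-NTA resin. HPLC-MS measured unbound probes; bound fraction relative to resin-only background gave dissociation constants.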

S100A4 [2] = biological target: T2, S100A4 (Homo sapiens, UniProt P26447); experiment: Competition pull-down with native ligand NMIIA (1893–1923); format: binding; conditions: H14 library; competitor peptide 200 µM; read-out: Surface mapping KD (apparent), competition
T2 construct: made in house; host or cells: Escherichia coli BL21(DE3)

Gal-1 [3] = biological target: T3, Gal-1 (Homo sapiens, UniProt P09382); experiment: Pull-down assay with immobilized protein and LSM libraries; format: binding; conditions: H14 library; 1:1 binding assumed; read-out: Surface mapping KD (apparent)
T3 construct: made in house; host or cells: E. coli BL21(DE3)
Procedure, shortened: (§1)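 Buffers were HEPES pH 7.4 with 150 mM NaCl, plus 1 mM TCEP and 1 mM CaCl2 (50 mM HEPES) for S100A4 and S100B, 1 mM TCEP for Gal-1, and no additive for RecQ-WH. Immobilized protein at 64 µM was equilibrated 30 min with the LSM sublibrary, and unbound probes were measured by LC-MS.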

S100A4 [4] = biological target: T2, S100A4; experiment: as above; format: binding; conditions: for Kd: H14 library, 1:1 binding assumed, read-out: Surface mapping KD (apparent); for Affinity class of probe (high, medium, low) in pull-down: H14 probes selected for validation
Procedure, shortened: as §1

S100B [5] = biological target: T4, S100B (Homo sapiens, UniProt P04271); experiment: as above; format: binding; conditions: for Kd: H14 library, 1:1 binding assumed, read-out: Surface mapping KD (apparent); for Affinity class of probe (high, medium, low) in pull-down: H14 probes selected for validation
T4 construct: made in house; host or cells: Escherichia coli BL21(DE3)
T4 sequence (P04271 1-92): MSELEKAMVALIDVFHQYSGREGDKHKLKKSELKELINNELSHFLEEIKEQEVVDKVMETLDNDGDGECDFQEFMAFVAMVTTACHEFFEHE
Procedure, shortened: as §1

S100B [6] = biological target: T4, S100B; experiment: Competition pull-down with native ligand RSK1 (689–735); format: binding; conditions: H14 library; competitor peptide 200 µM; read-out: Surface mapping KD (apparent), competition
RecQ-WH [7] = biological target: T5, RecQ-WH (Escherichia coli, UniProt P15043); experiment: Competition pull-down with native ligand SSB-Ct8; format: binding, E. coli; conditions: H14 library; competitor peptide 200 µM; read-out: Surface mapping KD (apparent), competition
T5 construct: coding for residues 408– 523 of E. coli RecQ; made in house; host or cells: E. coli BL21(DE3)

Gal-1 [8] = biological target: T3, Gal-1; experiment: Competition pull-down with lactose; format: binding; conditions: H14 library; lactose 10 mM; read-out: Surface mapping KD (apparent), competition
Procedure, shortened: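 His6-tagged proteins immobilized on Co-NTA resin at 64 µM final with 64-member LSM foldamer sublibraries (1 M each, as printed) in pH 7.4 HEPES/NaCl buffers (Ca2+/TCEP per target), 30 min RT; competitor peptides 200 µM final, lactose 10 mM for Gal-1. Bound fractions from LC-MS loss vs protein-free resin; KD assuming 1:1 binding.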

CaM [9] = biological target: T1, CaM; experiment: Competition pull-down with native ligand TRPV1-Ct15; format: binding, bovine; conditions: H14 library; competitor peptide 200 µM; read-out: Surface mapping KD (apparent), competition
RecQ-WH [10] = biological target: T5, RecQ-WH; experiment: Pull-down assay with immobilized protein and LSM libraries; set-up: species or system E. coli; conditions: H14 library; 1:1 binding assumed; read-out: Surface mapping KD (apparent)
Procedure, shortened: as §1

T3 sequence (P09382 whole entry): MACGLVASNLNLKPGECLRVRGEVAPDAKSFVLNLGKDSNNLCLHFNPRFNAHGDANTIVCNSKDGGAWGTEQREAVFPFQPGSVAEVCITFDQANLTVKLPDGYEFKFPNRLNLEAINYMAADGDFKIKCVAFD
T5 sequence (P15043 408-523): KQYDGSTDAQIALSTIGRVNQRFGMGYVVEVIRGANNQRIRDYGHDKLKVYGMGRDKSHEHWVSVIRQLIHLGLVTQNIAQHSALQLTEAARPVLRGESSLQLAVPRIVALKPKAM
T2 sequence (P26447 whole entry): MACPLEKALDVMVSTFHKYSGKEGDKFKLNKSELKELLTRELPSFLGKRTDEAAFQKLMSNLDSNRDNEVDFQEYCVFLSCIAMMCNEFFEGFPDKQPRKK

Row | Binding (S100A4 [4]; H14 probes) | Binding (S100B [5]; H14 probes) | Structure (SMILES) | Kd (CaM [1]) | Kd (S100A4 [2]) | Kd (Gal-1 [3]) | Kd (S100A4 [4]) | Kd (S100B [5]) | Kd (S100B [6]) | Kd (RecQ-WH [7]) | Kd (Gal-1 [8]) | Kd (CaM [9]) | Kd (RecQ-WH [10]) | Affinity class of probe (high, medium, low) in pull-down (S100A4 [4]) | Affinity class of probe (high, medium, low) in pull-down (S100B [5])
1 |  |  | CC(C)[C@@H](CC(=O)N[C@H]1CCCC[C@@H]1C(N)=O)NC(=O)[C@H]1CCCC[C@@H]1NC(=O)[C@H]1CCCC[C@@H]1NC(=O)C[C@@H](NC(=O)[C@H]1CCCC[C@@H]1N)C(C)C [H14 VV] | 7 µM | 356 µM | 244 µM | 3 µM | 73 µM | 198 µM |  |  |  |  |  | 
2 |  |  | CC[C@H](C)[C@@H](CC(=O)N[C@H]1CCCC[C@@H]1C(N)=O)NC(=O)[C@H]1CCCC[C@@H]1NC(=O)[C@H]1CCCC[C@@H]1NC(=O)C[C@H](Cc1c[nH]c2ccccc12)NC(=O)[C@H]1CCCC[C@@H]1N [H14 WI] | 1 µM | 255 µM | 71 µM | 10 µM | 12 µM | 123 µM | 142 µM | 105 µM | 55 µM | 68 µM |  | 
3 |  |  | CSCC[C@@H](CC(=O)N[C@H]1CCCC[C@@H]1C(N)=O)NC(=O)[C@H]1CCCC[C@@H]1NC(=O)[C@H]1CCCC[C@@H]1NC(=O)C[C@H](CC(C)C)NC(=O)[C@H]1CCCC[C@@H]1N [H14 LM] | 14 µM | 318 µM | 138 µM | 4 µM | 67 µM | 163 µM |  | 334 µM | 468 µM | 233 µM |  | 
4 |  |  | N=C(N)NCCC[C@@H](CC(=O)N[C@H]1CCCC[C@@H]1C(=O)N[C@H]1CCCC[C@@H]1C(=O)N[C@H](CC(=O)N[C@H]1CCCC[C@@H]1C(N)=O)Cc1ccc(O)cc1)NC(=O)[C@H]1CCCC[C@@H]1N [H14 RY] | 16 µM | 324 µM |  | 112 µM | 40 µM |  |  |  |  |  |  | 
5 |  |  | NC(=O)[C@H]1CCCC[C@@H]1NC(=O)C[C@H](Cc1ccc(O)cc1)NC(=O)[C@H]1CCCC[C@@H]1NC(=O)[C@H]1CCCC[C@@H]1NC(=O)C[C@H](Cc1c[nH]c2ccccc12)NC(=O)[C@H]1CCCC[C@@H]1N [H14 WY] | 2 µM | 367 µM | 145 µM | 35 µM | 66 µM | 104 µM | 193 µM | 222 µM | 119 µM | 50 µM |  | 
6 |  |  | CC[C@H](C)[C@@H](CC(=O)N[C@H]1CCCC[C@@H]1C(N)=O)NC(=O)[C@H]1CCCC[C@@H]1NC(=O)[C@H]1CCCC[C@@H]1NC(=O)C[C@@H](NC(=O)[C@H]1CCCC[C@@H]1N)C(C)C [H14 VI] | 13 µM | 246 µM | 105 µM | 3 µM | 43 µM | 181 µM |  | 293 µM |  | 366 µM |  | 
7 | binds | does not | CC[C@H](C)[C@@H](CC(=O)N[C@H]1CCCC[C@@H]1C(N)=O)NC(=O)[C@H]1CCCC[C@@H]1NC(=O)[C@H]1CCCC[C@@H]1NC(=O)C[C@@H](NC(=O)[C@H]1CCCC[C@@H]1N)[C@@H](C)O [H14 TI] | 69 µM | 473 µM | 175 µM | 7 µM | 183 µM |  |  | 266 µM |  |  | high | low
8 |  |  | CC(C)C[C@@H](CC(=O)N[C@H]1CCCC[C@@H]1C(N)=O)NC(=O)[C@H]1CCCC[C@@H]1NC(=O)[C@H]1CCCC[C@@H]1NC(=O)C[C@@H](NC(=O)[C@H]1CCCC[C@@H]1N)C(C)C [H14 VL] | 13 µM | 246 µM | 66 µM | 3 µM | 43 µM | 180 µM |  | 220 µM |  | 366 µM | high | medium
9 |  |  | NC(=O)[C@H]1CCCC[C@@H]1NC(=O)C[C@H](Cc1c[nH]c2ccccc12)NC(=O)[C@H]1CCCC[C@@H]1NC(=O)[C@H]1CCCC[C@@H]1NC(=O)C[C@H](Cc1c[nH]c2ccccc12)NC(=O)[C@H]1CCCC[C@@H]1N [H14 WW] | 1.2 µM | 462 µM | 30 µM | 23 µM | 19 µM | 138 µM | 84 µM | 51 µM | 35 µM | 40 µM | medium | high
10 |  |  | CC(C)C[C@@H](CC(=O)N[C@H]1CCCC[C@@H]1C(=O)N[C@H]1CCCC[C@@H]1C(=O)N[C@H](CC(=O)N[C@H]1CCCC[C@@H]1C(N)=O)Cc1ccccc1)NC(=O)[C@H]1CCCC[C@@H]1N [H14 LF] | 11 µM | 140 µM | 25 µM | 3 µM | 11 µM | 71 µM | 439 µM | 43 µM | 162 µM | 186 µM |  | 
11 |  |  | CC(C)[C@@H](CC(=O)N[C@H]1CCCC[C@@H]1C(N)=O)NC(=O)[C@H]1CCCC[C@@H]1NC(=O)[C@H]1CCCC[C@@H]1NC(=O)C[C@H](Cc1ccccc1)NC(=O)[C@H]1CCCC[C@@H]1N [H14 FV] | 1.2 µM | 376 µM | 199 µM | 12 µM | 44 µM | 253 µM |  | 323 µM | 141 µM | 129 µM |  | 
12 |  |  | CC[C@H](C)[C@@H](CC(=O)N[C@H]1CCCC[C@@H]1C(N)=O)NC(=O)[C@H]1CCCC[C@@H]1NC(=O)[C@H]1CCCC[C@@H]1NC(=O)C[C@H](CCSC)NC(=O)[C@H]1CCCC[C@@H]1N [H14 MI] | 3 µM | 447 µM | 145 µM | 11 µM | 62 µM | 269 µM |  | 235 µM | 435 µM | 226 µM |  | 
13 |  |  | CC[C@H](C)[C@@H](CC(=O)N[C@H]1CCCC[C@@H]1C(=O)N[C@H]1CCCC[C@@H]1C(=O)N[C@@H](CCSC)CC(=O)N[C@H]1CCCC[C@@H]1C(N)=O)NC(=O)[C@H]1CCCC[C@@H]1N [H14 IM] | 11 µM | 217 µM | 238 µM | 3 µM | 47 µM | 163 µM |  |  |  | 340 µM |  | 
14 |  |  | CSCC[C@@H](CC(=O)N[C@H]1CCCC[C@@H]1C(=O)N[C@H]1CCCC[C@@H]1C(=O)N[C@H](CC(=O)N[C@H]1CCCC[C@@H]1C(N)=O)CC(C)C)NC(=O)[C@H]1CCCC[C@@H]1N [H14 ML] | 3 µM | 447 µM | 145 µM | 11 µM | 62 µM | 269 µM |  | 235 µM | 435 µM | 226 µM |  | 
15 |  |  | CC(C)C[C@@H](CC(=O)N[C@H]1CCCC[C@@H]1C(N)=O)NC(=O)[C@H]1CCCC[C@@H]1NC(=O)[C@H]1CCCC[C@@H]1NC(=O)C[C@@H](NC(=O)[C@H]1CCCC[C@@H]1N)[C@@H](C)O [H14 TL] | 69 µM | 473 µM | 175 µM | 7 µM | 183 µM |  |  | 266 µM |  |  |  | 
16 |  |  | CC(C)[C@@H](CC(=O)N[C@H]1CCCC[C@@H]1C(=O)N[C@H]1CCCC[C@@H]1C(=O)N[C@H](CC(=O)N[C@H]1CCCC[C@@H]1C(N)=O)Cc1ccccc1)NC(=O)[C@H]1CCCC[C@@H]1N [H14 VF] | 5 µM | 474 µM | 93 µM | 3 µM | 20 µM | 91 µM |  | 193 µM | 239 µM | 347 µM |  | 
17 |  |  | CC(C)C[C@@H](CC(=O)N[C@H]1CCCC[C@@H]1C(=O)N[C@H]1CCCC[C@@H]1C(=O)N[C@H](CC(=O)N[C@H]1CCCC[C@@H]1C(N)=O)C(C)C)NC(=O)[C@H]1CCCC[C@@H]1N [H14 LV] | 3 µM | 192 µM | 68 µM | 5 µM | 56 µM | 213 µM |  | 128 µM |  | 177 µM |  | 
18 |  |  | CC[C@H](C)[C@@H](CC(=O)N[C@H]1CCCC[C@@H]1C(=O)N[C@H]1CCCC[C@@H]1C(=O)N[C@H](CC(=O)N[C@H]1CCCC[C@@H]1C(N)=O)C(C)C)NC(=O)[C@H]1CCCC[C@@H]1N [H14 IV] | 3 µM | 187 µM | 57 µM | 3 µM | 43 µM | 178 µM |  | 114 µM |  | 366 µM |  | 
